pIC50: −log10 of the molar value. Calls of active or inactive are those of the source. No cut-off for these calls is given here. Some results are limits rather than exact numbers.

A word on the pIC50: it is the negative decadic logarithm of the IC50, by convention in mol/L. Low values mean a large IC50, high ones a small IC50. In general, Papp A→B refers to how fast a substance crosses the layer from the apical side. A higher Papp A→B goes with ready permeation. Broadly, the Cmax is the peak of the concentration-time curve. The MRT inf is the average time that molecules of a dose stay in the body.

Data set [1] deals with CT26. As to the kind of experiment: Antitumor activity against mouse CT26 cells implanted in Balb/c mouse assessed as increase in infiltration CD8 positive T cells in tumors at 25 mg/kg, IG measured after 14 days by flow cytometry. Format: functional, organism-based. As to conditions: time 14.0 day. (In flow cytometry, cells or beads pass a laser one at a time.)
Data set [2] deals with CT26. Nature of the data set: Antitumor activity in immunocompetent mouse CT26 cell bearing mouse model assessed as tumor growth inhibition at 12.5 mg/kg, IG treated twice a day measured after 14 days relative to control. Format: functional. As to conditions: CT26, po, 336 h, time 14 day, read-out: TGI.
Data set [3] has as its target Protein mono-ADP-ribosyltransferase PARP14 (Homo sapiens, UniProt Q460N5). As to the kind of experiment: Inhibition of PARP14 (unknown origin) measured after 1 hr incubation by microplate reader assay.
In data set [4] the target is T1, Protein mono-ADP-ribosyltransferase PARP12 (Homo sapiens, UniProt Q9H0J9).
T1 sequence (Q9H0J9 whole entry): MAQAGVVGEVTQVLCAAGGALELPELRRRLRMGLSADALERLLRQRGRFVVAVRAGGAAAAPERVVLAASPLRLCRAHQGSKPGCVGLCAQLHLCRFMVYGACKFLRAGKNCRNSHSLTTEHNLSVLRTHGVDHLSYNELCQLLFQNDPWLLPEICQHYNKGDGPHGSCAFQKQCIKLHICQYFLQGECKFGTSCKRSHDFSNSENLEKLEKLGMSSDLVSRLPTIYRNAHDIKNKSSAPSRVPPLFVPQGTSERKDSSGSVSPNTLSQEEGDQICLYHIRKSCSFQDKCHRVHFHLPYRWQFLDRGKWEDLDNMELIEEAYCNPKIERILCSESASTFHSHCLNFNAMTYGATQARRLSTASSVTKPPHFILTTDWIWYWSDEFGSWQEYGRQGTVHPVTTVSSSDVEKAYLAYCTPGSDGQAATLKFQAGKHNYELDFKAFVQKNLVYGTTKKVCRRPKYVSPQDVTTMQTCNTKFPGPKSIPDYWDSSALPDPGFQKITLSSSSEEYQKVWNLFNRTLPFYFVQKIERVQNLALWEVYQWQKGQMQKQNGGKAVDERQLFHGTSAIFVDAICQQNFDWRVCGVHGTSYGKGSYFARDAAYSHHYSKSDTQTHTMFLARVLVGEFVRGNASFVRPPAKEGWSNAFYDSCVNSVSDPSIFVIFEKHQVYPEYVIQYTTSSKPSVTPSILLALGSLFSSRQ
Nature of the data set: Inhibition of PARP12 (unknown origin) measured after 1 hr incubation by microplate reader assay.

Data set [5] can be described thus: Permeability across apical to basolateral side in human Caco-2 cells. It is filed as ADME, cell-based.
Data set [6] can be described thus: Cmax in ICR mouse at 10 mg/kg, IG measured upto 24 hrs by LC-MS/MS analysis. Format: ADME, organism-based. As to conditions: in vivo, po.
The nature of data set [7]: Toxicity in Balb/c mouse bearing mouse CT26 cells assessed as morphological changes in heart at 6.25 to 25 mg/kg, IG measured after 14 days by hematoxylin and eosin staining based assay. Format: organism-based. As to conditions: in vivo, po, 336 h, dose 6.25-25 mg/kg, time 14 day.
The nature of data set [8]: MRT (0 to infinity) in ICR mouse at 10 mg/kg, IG measured upto 24 hrs by LC-MS/MS analysis. It is filed as ADME, organism-based. As to conditions: in vivo, po.
Data set [9] deals with T2, Protein mono-ADP-ribosyltransferase TIPARP (Mus musculus) (UniProt Q8C1B2).
T2 sequence (whole entry): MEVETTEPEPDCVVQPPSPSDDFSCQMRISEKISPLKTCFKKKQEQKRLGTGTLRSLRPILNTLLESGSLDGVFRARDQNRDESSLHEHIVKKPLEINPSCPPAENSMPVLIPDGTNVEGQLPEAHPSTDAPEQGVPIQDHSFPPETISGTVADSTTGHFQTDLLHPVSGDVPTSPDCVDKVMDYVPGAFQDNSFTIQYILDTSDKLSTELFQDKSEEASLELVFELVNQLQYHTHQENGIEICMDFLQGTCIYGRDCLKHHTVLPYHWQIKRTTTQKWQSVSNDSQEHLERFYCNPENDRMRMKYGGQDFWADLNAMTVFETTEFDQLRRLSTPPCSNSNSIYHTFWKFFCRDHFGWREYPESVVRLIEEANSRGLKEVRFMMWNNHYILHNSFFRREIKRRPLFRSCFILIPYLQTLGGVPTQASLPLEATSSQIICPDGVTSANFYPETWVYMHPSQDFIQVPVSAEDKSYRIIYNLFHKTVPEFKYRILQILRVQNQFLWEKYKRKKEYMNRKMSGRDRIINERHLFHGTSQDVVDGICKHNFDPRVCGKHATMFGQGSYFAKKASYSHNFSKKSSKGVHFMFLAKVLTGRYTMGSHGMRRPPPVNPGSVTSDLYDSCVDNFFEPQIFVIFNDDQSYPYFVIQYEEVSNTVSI
As to the kind of experiment: Inhibition of PARP7 in mouse CT26 cells assessed as increase in STAT1 phosphorylation incubated for 3 days by Western blot analysis. It is filed as cell-based. As to conditions: dose 0.14-4 µM, time 3.0 day. In general terms: In western blotting, separated proteins are transferred to a membrane and probed.

The target in data set [10] is T3, Protein mono-ADP-ribosyltransferase PARP10 (Homo sapiens, UniProt Q53GL7).
T3 sequence (Q53GL7 whole entry): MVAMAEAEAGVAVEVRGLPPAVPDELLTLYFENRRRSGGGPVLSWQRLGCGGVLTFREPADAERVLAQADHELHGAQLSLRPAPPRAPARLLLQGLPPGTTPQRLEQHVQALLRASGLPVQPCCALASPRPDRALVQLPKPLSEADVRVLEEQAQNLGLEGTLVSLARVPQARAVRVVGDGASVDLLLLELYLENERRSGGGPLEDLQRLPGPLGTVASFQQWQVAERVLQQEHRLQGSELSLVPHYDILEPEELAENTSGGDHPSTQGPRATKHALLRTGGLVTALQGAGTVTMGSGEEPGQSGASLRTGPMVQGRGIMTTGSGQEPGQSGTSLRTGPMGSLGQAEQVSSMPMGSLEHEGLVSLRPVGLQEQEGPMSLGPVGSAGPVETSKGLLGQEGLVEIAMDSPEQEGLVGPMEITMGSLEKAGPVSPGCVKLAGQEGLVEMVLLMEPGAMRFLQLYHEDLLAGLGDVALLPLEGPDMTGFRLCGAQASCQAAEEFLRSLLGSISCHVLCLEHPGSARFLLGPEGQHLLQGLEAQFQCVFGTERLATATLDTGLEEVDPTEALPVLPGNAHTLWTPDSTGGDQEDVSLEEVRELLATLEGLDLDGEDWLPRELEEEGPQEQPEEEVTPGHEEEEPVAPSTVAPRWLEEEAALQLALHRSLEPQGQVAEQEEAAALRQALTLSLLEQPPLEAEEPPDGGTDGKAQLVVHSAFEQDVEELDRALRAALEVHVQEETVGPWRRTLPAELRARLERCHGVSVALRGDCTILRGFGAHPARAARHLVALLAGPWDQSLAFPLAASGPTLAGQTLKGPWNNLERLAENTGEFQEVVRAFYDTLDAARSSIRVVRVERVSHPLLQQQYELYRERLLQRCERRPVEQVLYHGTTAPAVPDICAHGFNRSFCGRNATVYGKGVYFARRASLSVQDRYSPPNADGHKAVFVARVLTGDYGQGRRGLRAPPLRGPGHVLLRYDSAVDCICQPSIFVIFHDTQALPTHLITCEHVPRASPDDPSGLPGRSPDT
Nature of the data set: Inhibition of PARP10 (unknown origin) measured after 1 hr incubation by microplate reader assay.

Chain of Protein mono-ADP-ribosyltransferase PARP14 (Q460N5 whole entry): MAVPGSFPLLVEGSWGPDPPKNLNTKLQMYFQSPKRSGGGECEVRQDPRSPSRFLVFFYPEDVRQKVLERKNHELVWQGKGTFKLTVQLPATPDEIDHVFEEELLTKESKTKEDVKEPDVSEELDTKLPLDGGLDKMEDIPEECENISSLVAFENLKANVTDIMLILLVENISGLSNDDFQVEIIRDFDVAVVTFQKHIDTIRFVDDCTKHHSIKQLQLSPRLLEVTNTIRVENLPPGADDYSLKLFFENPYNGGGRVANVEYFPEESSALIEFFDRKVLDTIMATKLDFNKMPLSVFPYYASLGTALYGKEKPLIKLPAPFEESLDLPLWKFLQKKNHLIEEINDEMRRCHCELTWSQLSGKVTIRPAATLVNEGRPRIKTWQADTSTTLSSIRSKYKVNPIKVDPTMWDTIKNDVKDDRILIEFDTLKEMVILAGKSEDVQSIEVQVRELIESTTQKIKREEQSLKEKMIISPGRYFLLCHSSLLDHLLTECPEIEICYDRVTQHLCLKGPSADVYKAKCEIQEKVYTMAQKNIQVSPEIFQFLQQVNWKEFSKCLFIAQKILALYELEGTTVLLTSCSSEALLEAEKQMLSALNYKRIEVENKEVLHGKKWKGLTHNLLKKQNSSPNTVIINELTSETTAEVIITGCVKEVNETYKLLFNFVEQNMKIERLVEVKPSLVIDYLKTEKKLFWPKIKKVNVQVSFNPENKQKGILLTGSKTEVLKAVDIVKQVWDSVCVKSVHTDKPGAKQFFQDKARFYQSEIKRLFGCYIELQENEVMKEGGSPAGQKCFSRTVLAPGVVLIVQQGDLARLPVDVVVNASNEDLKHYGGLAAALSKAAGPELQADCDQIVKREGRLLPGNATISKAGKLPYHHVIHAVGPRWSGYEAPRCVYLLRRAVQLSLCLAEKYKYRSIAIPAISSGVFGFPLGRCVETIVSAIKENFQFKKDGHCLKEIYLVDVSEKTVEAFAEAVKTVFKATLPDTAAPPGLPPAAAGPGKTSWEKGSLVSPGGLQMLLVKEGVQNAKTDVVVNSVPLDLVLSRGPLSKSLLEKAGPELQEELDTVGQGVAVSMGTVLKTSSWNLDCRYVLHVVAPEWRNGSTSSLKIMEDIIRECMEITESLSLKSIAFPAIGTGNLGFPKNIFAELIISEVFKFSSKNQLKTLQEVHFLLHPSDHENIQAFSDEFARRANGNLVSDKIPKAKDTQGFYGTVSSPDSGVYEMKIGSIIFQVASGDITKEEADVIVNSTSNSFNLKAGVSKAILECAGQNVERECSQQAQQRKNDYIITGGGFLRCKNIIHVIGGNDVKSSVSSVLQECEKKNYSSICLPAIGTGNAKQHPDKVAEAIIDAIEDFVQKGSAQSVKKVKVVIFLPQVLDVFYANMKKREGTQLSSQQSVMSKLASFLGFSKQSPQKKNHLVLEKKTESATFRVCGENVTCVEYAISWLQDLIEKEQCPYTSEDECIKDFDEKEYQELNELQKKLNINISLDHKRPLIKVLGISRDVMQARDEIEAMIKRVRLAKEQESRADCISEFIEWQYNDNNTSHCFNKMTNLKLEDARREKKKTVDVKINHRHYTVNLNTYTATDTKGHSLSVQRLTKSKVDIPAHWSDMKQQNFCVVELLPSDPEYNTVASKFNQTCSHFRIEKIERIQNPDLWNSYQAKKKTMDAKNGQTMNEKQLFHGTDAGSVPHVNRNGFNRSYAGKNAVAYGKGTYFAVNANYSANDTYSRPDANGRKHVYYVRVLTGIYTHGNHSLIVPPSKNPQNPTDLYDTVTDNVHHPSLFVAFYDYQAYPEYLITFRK

Take `C[C@@H](C(=O)N1CCN(c2ncc(C(F)(F)F)cn2)CC1)n1cc2cccc(C(N)=O)c2n1`: the result in the data set with CT26 [1] was Active. In addition, the inhibition in vivo at 12.5 mg/kg in the data set on CT26 [2] stood at 53%. Moreover, the pIC50 in data set [3] was less than 5.89; in data set [4] it was 6.18; in data set [10], 6.42. The Papp A→B in data set [5] amounted to 25.7 ×10⁻⁶ cm/s. This molecule also came in with a Cmax in data set [6] of 7350 ng/mL. The Activity entry in data set [7] is given as “Non-Toxic”. In data set [8], this molecule returned an MRT inf of 2.52 h. In addition, the inhibition result in [9] is “Dose-Dependent Effect”.

The record behind these values is ChEMBL document CHEMBL5537136 (J Med Chem, 2024).
